How the values were obtained:
[1] = tested on: normal NK cells expanded with K562-aAPC; experiment: percent inhibition of viability; higher = more inhibition; settings: 72 h, IL-2 2.5 ng/mL
Description: (§1)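 Drug sensitivity and resistance testing on K562-aAPC-expanded normal NK cells: 5 concentrations (10-fold steps over a 10,000-fold range), 72 h at 37 °C, viability by CellTiter-Glo normalised to DMSO and benzethonium chloride controls; DSS from the fitted curve.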

[2] = tested on: DERL-7 (IL-2 2.5 ng/mL); experiment: as above; settings: 72 h
[3] = tested on: IMC-1 (IL-2 20 ng/mL); experiment: as above; settings: 72 h
[4] = tested on: KAI3 (IL-2 2.5 ng/mL); experiment: as above; settings: 72 h
[5] = tested on: KHYG-1 (IL-2 2.5 ng/mL); experiment: as above; settings: 72 h
[6] = tested on: NK-92 (IL-2 2.5 ng/mL); experiment: as above; settings: 72 h
[7] = tested on: NK-YS (IL-2 2.5 ng/mL); experiment: as above; settings: 72 h
[8] = tested on: NKL (IL-2 2.5 ng/mL); experiment: as above; settings: 72 h
[9] = tested on: SNK-6 (IL-2 2.5 ng/mL); experiment: as above; settings: 72 h
[10] = tested on: YT (IL-2 2.5 ng/mL); experiment: as above; settings: 72 h
[11] = tested on: normal primary NK cells, pool 1 (3 donors) (IL-2 2.5 ng/mL); experiment: as above; settings: 72 h
[12] = tested on: normal primary NK cells, pool 1 (3 donors), resting (IL-2 0 ng/mL); experiment: as above; settings: 72 h
[13] = tested on: normal primary NK cells, pool 2 (3 donors) (IL-2 2.5 ng/mL); experiment: as above; settings: 72 h
[14] = tested on: normal primary NK cells, pool 3 (3 donors) (IL-2 2.5 ng/mL); experiment: as above; settings: 72 h
[15] = tested on: normal NK cells expanded with K562-aAPC; experiment: drug sensitivity score (DSS) (DSS units); higher = more sensitive; extreme values may be limits of the assay; settings: 72 h; IL-2 2.5 ng/mL
Description: as §1

[16] = tested on: DERL-7 (IL-2 2.5 ng/mL); experiment: as above; settings: 72 h
[17] = tested on: IMC-1 (IL-2 20 ng/mL); experiment: as above; settings: 72 h
[18] = tested on: KAI3 (IL-2 2.5 ng/mL); experiment: as above; settings: 72 h
[19] = tested on: KHYG-1 (IL-2 2.5 ng/mL); experiment: as above; settings: 72 h
[20] = tested on: NK-92 (IL-2 2.5 ng/mL); experiment: as above; settings: 72 h
[21] = tested on: NK-YS (IL-2 2.5 ng/mL); experiment: as above; settings: 72 h
[22] = tested on: NKL (IL-2 2.5 ng/mL); experiment: as above; settings: 72 h
[23] = tested on: SNK-6 (IL-2 2.5 ng/mL); experiment: as above; settings: 72 h
[24] = tested on: YT (IL-2 2.5 ng/mL); experiment: as above; settings: 72 h
[25] = tested on: normal primary NK cells, pool 1 (3 donors) (IL-2 2.5 ng/mL); experiment: as above; settings: 72 h
[26] = tested on: normal primary NK cells, pool 1 (3 donors), resting (IL-2 0 ng/mL); experiment: as above; settings: 72 h
[27] = tested on: normal primary NK cells, pool 2 (3 donors) (IL-2 2.5 ng/mL); experiment: as above; settings: 72 h
[28] = tested on: normal primary NK cells, pool 3 (3 donors) (IL-2 2.5 ng/mL); experiment: as above; settings: 72 h

CC[C@]1(O)C[C@@H]2CN(CCc3c([nH]c4ccccc34)[C@@](C(=O)OC)(c3cc4c(cc3OC)N(C)[C@H]3[C@@](O)(C(=O)OC)[C@H](OC(C)=O)[C@]5(CC)C=CCN6CC[C@]43[C@@H]65)C2)C1 [Vinblastine] (max concentration tested 1000 nM)
percent inhibition of viability [%]
Settings	0.1 nM	1 nM	10 nM	100 nM	1000 nM
[1]	-6.33	-1.7	26.7	60.2	63
[2]	-13.4	-1.94	99.7	101	99.8
[3]	-4.96	-7.43	99.5	101	100
[4]	-16.5	-7.66	45.5	71.1	82.4
[5]	-4.6	-0.24	96.7	108	110
[6]	-11.5	-1.18	64.9	100	107
[7]	-5.37	-3.92	70.7	69.4	90.8
[8]	-3.5	4.6	90.8	97.5	102
[9]	-13.4	-12.2	83.3	91.1	97.8
[10]	-6.33	-5.56	88.8	105	107
[11]	-10.7	7.03	4.09	14.3	22.7
[12]	-21.5	2.75	-2.96	17.9	28.1
[13]	-6.34	7.02	16.6	16.1	23.6
[14]	-4.89	5.36	12.3	3.78	13.7

Settings	drug sensitivity score
[15]	14.7
[16]	30.2
[17]	29.8
[18]	20.6
[19]	30
[20]	25.6
[21]	24.6
[22]	29.5
[23]	27.2
[24]	28.4
[25]	1.97
[26]	3.19
[27]	4.33
[28]	0.31

Reference: the supplement of paper PMC5908809
